What was measured:
Test in all cases: Enzyme Assay
PIK3CD (Human) = PIK3CD (Human) (UniProt O00329)
PIK3CA (human) = PIK3CA (human) (UniProt P42336)
PIK3CB (Human) = PIK3CB (Human) (UniProt P42338)
PIK3CG (human) = PIK3CG (human) (UniProt P48736)
Chain of PIK3CG (human) (P48736 whole entry, looked up): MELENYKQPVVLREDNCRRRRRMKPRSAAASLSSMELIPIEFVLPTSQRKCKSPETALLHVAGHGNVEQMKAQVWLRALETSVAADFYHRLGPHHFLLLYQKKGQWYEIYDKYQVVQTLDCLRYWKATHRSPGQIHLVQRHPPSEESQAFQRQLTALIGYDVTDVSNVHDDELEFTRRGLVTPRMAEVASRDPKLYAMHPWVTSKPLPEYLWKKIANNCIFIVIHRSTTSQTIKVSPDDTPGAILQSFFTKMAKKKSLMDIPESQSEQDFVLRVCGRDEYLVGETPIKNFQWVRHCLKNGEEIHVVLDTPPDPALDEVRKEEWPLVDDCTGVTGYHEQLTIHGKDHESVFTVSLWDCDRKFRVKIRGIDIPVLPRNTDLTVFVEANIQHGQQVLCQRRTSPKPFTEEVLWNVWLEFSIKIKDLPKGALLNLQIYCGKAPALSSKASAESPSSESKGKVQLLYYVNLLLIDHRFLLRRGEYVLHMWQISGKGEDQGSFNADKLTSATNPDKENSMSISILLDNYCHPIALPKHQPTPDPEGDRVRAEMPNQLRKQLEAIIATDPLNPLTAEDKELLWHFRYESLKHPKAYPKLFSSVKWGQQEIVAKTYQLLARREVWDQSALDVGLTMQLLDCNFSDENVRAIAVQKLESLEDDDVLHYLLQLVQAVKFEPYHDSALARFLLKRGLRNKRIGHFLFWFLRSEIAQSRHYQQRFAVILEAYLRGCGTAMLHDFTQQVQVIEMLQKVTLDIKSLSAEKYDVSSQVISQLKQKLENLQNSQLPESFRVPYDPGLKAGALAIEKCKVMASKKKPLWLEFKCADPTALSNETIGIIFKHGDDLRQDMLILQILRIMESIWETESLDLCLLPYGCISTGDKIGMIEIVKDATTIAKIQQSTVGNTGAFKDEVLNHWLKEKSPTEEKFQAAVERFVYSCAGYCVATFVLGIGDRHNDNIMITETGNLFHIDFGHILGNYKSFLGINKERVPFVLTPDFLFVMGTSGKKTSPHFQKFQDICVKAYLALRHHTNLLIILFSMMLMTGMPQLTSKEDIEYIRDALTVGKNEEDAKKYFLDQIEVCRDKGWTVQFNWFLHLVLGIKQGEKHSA

Chain of PIK3CA (human) (P42336 whole entry, looked up): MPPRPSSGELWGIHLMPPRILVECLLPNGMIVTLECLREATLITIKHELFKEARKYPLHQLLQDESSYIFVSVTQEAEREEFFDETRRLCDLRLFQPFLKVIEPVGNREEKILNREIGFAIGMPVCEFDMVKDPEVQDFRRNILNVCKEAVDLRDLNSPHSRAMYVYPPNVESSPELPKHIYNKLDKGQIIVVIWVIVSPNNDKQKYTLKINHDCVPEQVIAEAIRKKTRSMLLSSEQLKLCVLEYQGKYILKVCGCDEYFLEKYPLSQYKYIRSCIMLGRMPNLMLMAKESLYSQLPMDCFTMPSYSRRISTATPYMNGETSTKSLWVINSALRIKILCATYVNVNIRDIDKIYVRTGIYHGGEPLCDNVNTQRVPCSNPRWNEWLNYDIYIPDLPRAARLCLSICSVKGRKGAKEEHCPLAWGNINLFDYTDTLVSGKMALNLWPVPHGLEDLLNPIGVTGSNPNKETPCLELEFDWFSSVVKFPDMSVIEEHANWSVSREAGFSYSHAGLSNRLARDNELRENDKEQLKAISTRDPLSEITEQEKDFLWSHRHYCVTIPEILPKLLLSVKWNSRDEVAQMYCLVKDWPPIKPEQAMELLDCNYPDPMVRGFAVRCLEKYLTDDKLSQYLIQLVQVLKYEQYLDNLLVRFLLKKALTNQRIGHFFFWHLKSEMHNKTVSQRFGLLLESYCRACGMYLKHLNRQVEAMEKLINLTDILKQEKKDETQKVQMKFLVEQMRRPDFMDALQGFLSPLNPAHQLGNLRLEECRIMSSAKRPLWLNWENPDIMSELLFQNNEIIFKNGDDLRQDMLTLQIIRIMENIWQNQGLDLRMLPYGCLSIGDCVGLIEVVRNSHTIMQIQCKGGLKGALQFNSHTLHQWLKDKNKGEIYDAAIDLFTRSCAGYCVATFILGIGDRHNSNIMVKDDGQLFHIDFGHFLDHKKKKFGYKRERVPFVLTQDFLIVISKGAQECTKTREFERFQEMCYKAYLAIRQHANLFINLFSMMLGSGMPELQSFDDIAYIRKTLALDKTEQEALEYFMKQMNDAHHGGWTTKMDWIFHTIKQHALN
Chain of PIK3CD (Human) (O00329 whole entry, looked up): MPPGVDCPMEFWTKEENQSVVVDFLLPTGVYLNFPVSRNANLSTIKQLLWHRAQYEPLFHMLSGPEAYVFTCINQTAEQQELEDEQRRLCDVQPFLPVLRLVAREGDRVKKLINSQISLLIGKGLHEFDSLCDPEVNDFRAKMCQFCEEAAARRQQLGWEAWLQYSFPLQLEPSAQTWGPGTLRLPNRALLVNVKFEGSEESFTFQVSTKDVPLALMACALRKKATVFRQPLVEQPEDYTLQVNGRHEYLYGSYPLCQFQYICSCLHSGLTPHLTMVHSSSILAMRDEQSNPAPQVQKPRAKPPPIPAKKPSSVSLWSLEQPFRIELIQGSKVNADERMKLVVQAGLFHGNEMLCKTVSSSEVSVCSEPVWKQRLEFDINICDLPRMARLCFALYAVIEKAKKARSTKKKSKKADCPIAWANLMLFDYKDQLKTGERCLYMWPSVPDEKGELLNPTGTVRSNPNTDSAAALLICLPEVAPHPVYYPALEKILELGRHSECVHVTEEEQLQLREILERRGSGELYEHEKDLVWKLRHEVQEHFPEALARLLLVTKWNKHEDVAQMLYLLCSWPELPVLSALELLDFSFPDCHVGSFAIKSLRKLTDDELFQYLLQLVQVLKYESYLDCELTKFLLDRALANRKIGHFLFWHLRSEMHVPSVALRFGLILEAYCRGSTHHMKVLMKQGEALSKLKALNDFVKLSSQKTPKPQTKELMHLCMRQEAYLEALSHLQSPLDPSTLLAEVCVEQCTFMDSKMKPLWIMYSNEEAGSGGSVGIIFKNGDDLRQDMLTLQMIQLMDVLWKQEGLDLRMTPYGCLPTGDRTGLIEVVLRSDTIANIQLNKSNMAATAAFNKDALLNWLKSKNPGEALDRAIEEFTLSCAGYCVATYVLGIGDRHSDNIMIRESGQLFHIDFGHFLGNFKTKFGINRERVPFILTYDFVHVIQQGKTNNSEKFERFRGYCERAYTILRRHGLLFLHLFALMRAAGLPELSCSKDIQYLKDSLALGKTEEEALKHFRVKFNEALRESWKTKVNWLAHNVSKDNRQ
Chain of PIK3CB (Human) (P42338 whole entry, looked up): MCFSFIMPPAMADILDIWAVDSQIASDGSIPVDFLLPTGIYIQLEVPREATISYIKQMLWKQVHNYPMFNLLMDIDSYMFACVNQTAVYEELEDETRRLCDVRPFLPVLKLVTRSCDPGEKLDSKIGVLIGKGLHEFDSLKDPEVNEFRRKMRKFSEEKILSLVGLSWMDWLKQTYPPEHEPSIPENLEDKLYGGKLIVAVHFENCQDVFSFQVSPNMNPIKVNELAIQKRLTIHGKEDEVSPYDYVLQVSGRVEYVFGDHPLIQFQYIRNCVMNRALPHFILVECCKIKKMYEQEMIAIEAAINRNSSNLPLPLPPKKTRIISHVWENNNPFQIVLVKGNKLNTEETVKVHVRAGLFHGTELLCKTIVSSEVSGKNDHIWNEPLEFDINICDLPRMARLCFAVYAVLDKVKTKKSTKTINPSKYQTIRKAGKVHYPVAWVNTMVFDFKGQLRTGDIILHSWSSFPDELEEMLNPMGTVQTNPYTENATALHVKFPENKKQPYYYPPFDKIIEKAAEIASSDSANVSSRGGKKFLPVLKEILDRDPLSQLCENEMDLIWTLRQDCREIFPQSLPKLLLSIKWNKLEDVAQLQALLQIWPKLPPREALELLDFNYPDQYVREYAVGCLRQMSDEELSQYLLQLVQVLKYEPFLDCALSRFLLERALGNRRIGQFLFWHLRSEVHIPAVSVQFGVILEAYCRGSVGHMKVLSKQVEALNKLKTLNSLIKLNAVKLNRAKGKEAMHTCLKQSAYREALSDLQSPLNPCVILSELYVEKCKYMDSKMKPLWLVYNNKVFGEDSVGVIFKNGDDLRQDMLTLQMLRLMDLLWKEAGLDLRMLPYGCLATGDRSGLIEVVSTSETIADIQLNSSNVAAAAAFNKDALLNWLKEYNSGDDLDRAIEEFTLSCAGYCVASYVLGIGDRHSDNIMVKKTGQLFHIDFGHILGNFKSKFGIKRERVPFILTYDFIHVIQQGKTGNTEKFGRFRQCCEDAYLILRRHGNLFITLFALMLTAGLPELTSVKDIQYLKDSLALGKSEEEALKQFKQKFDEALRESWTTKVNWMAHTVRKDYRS

SMILES	IC50 (PIK3CD (Human)) [µM]	IC50 (PIK3CA (human)) [µM]	IC50 (PIK3CB (Human)) [µM]	IC50 (PIK3CG (human)) [µM]	Ki (PIK3CD (Human)) [µM]
c1cc(-c2cc(-c3ncco3)c3cn[nH]c3c2)c2cc[nH]c2c1	0.0794	10	1.26	1.26	
O=C(Nc1cc(-c2cccc3[nH]ccc23)cc2[nH]ncc12)c1csc(CN2CCCCC2)n1	0.01	20	15.8	15.8	
Cc1cc2c(-c3cc(NC(=O)c4csc(C)n4)c4cn[nH]c4c3)cccc2[nH]1	0.02	7.94	3.16	3.16	
Cc1cnc(-c2cc(-c3cccc4[nH]ccc34)cc3[nH]ncc23)s1	0.251	10	6.31	3.98	
Cc1nc(C(=O)Nc2cc(-c3cnc(Cl)c(N(C)S(=O)(=O)c4ccccc4)c3)cc3[nH]ncc23)cs1	0.501	> 25.1	> 25.1	> 25.1	
O=C(Nc1cc(-c2cccc3[nH]ccc23)cc2[nH]ncc12)c1cscn1	0.158	> 25.1	12.6	10	
Cc1cnc(-c2cc(-c3cccc4[nH]ccc34)cc3[nH]ncc23)o1	0.0631	10	1.26	0.398	
Cc1nc(C(=O)Nc2cc(-c3cnc(Cl)c(NS(C)(=O)=O)c3)cc3[nH]ncc23)cs1	0.002	0.316	1	0.0501	
C[C@@H]1CN(Cc2coc(-c3cc(-c4cccc5[nH]ccc45)cc4[nH]ncc34)n2)C[C@H](C)O1	0.00501	12.6	1.26	2.51	
Cc1nc(C(=O)Nc2cc(-c3cncc(NS(C)(=O)=O)c3)cc3[nH]ncc23)cs1	0.0794	7.94	> 25.1	0.316	
O=C(Nc1cc(-c2cccc3[nH]ccc23)cc2[nH]ncc12)c1cccc(CN2CCCCC2)n1	0.0126	> 25.1	12.6	> 25.1	
O=C(Nc1cc(-c2cccc3[nH]ccc23)cc2[nH]ncc12)c1csc(-c2ccccc2)n1	0.501	> 25.1	12.6	7.94	
COc1cc(-c2cc(NC(=O)c3csc(C)n3)c3cn[nH]c3c2)c2cc[nH]c2c1	0.0126	6.31	2.51	7.94	
Cc1ccc(-c2cc(-c3cccc4[nH]ccc34)cc3[nH]ncc23)s1	0.794	7.94	6.31	3.98	
Cc1nc(C(=O)Nc2cc(-c3cccc4[nH]cnc34)cc3[nH]ncc23)cs1	0.316	> 25.1	> 25.1	> 25.1	
Cc1coc(-c2cc(-c3cccc4[nH]ccc34)cc3[nH]ncc23)n1	0.126	12.6	0.794	0.631	
Cc1nc(C(=O)Nc2cc(-c3cnc(C)c(NS(C)(=O)=O)c3)cc3[nH]ncc23)cs1	0.0316	3.16	3.98	0.631	
COc1ncc(-c2cc(NC(=O)c3csc(CN4C[C@@H](C)O[C@@H](C)C4)n3)c3cn[nH]c3c2)cc1NS(C)(=O)=O	> 25.1	0.398	2.51	0.316	0.0001
O=C(Nc1cc(-c2cccc3[nH]ccc23)cc2[nH]ncc12)c1csc(Cc2ccccc2)n1	0.0794	> 25.1	> 25.1	12.6	
O=C(Nc1cc(-c2cccc3[nH]ccc23)cc2[nH]ncc12)c1ccccc1	1.26	> 25.1	20	12.6	
Cc1nc(C(=O)Nc2cc(-c3ccnc4[nH]ccc34)cc3[nH]ncc23)cs1	0.00794	7.94	5.01	0.251	

SMILES	IC50 (PIK3CD (Human)) [µM]	IC50 (PIK3CA (human)) [µM]	IC50 (PIK3CB (Human)) [µM]	IC50 (PIK3CG (human)) [µM]	Ki (PIK3CD (Human)) [µM]
CC(C)N1CCN(Cc2nnc(-c3cc(-c4cccc5[nH]ccc45)cc4[nH]ncc34)o2)CC1	0.00126	12.6	3.16	10	
Cc1nc(C(=O)Nc2cc(-c3cc(Cl)cc4[nH]ccc34)cc3[nH]ncc23)cs1	0.00794	5.01	1	3.98	
C[C@@H]1CN(Cc2cnc(-c3cc(-c4cccc5[nH]ccc45)cc4[nH]ncc34)o2)C[C@H](C)O1	0.00251	15.8	1	2	
Cc1nc(C(=O)Nc2cc(-c3cccc4c3ccn4C)cc3[nH]ncc23)cs1	5.01	> 25.1	> 25.1	> 25.1	
COc1ncc(-c2cc(-c3ncc(CN4C[C@@H](C)O[C@@H](C)C4)o3)c3cn[nH]c3c2)cc1NS(C)(=O)=O		0.501	0.631	0.501	
Cc1csc(-c2cc(-c3cccc4[nH]ccc34)cc3[nH]ncc23)n1	0.398	> 25.1	6.31	2.51	
Cc1ccc(C(=O)Nc2cc(-c3cccc4[nH]ccc34)cc3[nH]ncc23)nc1	0.126	> 25.1	15.8	1.26	
O=C(Nc1cc(-c2cccc3[nH]ccc23)cc2[nH]ncc12)c1csc(CN2CCN3CCC[C@H]3C2)n1	0.00398	7.94	7.94	10	
Cn1nccc1C(=O)Nc1cc(-c2cccc3[nH]ccc23)cc2[nH]ncc12	0.794	> 25.1	20	20	
CC(C)N1CCN(Cc2coc(-c3cc(-c4cccc5[nH]ccc45)cc4[nH]ncc34)n2)CC1	0.00398	12.6	3.98	15.8	
Cc1nc(C(=O)Nc2cc(-c3cccc4[nH]ccc34)cc3[nH]ncc23)cs1	0.0501	> 25.1	10	3.98	
Cc1nnc(-c2cc(-c3cccc4[nH]ccc34)cc3[nH]ncc23)o1	0.1	> 25.1	3.16	1.26	
CN(C(=O)c1ccccn1)c1cc(-c2cccc3[nH]ccc23)cc2[nH]ncc12	15.8	> 25.1	> 25.1	> 25.1	
C[C@@H]1CN(Cc2nnc(-c3cc(-c4cccc5[nH]ccc45)cc4[nH]ncc34)o2)C[C@H](C)O1	0.00316	> 25.1	1	2	
Cn1ccc(C(=O)Nc2cc(-c3cccc4[nH]ccc34)cc3[nH]ncc23)n1	0.1	> 25.1	12.6	10	
Cc1ccc(-c2cc(-c3cccc4[nH]ccc34)cc3[nH]ncc23)o1	0.126	5.01	2.51	2	
CC(C)N1CCN(Cc2cnc(-c3cc(-c4cccc5[nH]ccc45)cc4[nH]ncc34)o2)CC1	> 25.1	5.01	1.58	6.31	0.000126
CC(C)N1CCN(Cc2nc(C(=O)Nc3cc(-c4cccc5[nH]ccc45)cc4[nH]ncc34)cs2)CC1	0.00316	1.26	1.58	3.98	
Cc1nc(C(=O)Nc2cc(-c3ccc(Cl)c(NS(C)(=O)=O)c3)cc3[nH]ncc23)cs1	0.631	15.8	15.8	3.98	
O=C(Nc1cc(-c2cccc3[nH]ccc23)cc2[nH]ncc12)c1csc(CN2CCOCC2)n1	0.00631	10	7.94	3.16	
Cc1nc(C(=O)Nc2cc(-c3cnc(Cl)c(NS(=O)(=O)c4ccccc4)c3)cc3[nH]ncc23)cs1	0.00126	0.2	0.501	0.0251	

Source: the Kinase Knowledgebase extract (Sharma et al. 2016)
